The source of these data is US20260347348A1, “JAK1/JAK2/TYK2 Inhibitors For Topical Treatment of Dermatological Diseases” (Hangzhou Highlightll Pharmaceutical Co., Ltd, priority 2022, published 2026).

One series deals with TYK2/JAK1/JAK2. The series is described as follows: TYK2/JAK1/JAK2 biochemical tests, comparative summary. The following applies: for fold less potent TYK2/JAK1/JAK2 inhibitor compared to analogs of Formula II (example 4) and Formula III (example 18): compared with examples 4 and 18; for fold less potent than its 2-((pyrazol-4-yl)amino) analog (example 18): compared with example 18. As for the experimental part: (§1) The tests were conducted by Reaction Biology Corp, Malvern, PA (Anastassiadis et al. Nat Biotechnol. 2011; 29(11):1039-45). The step is briefly described as follows.
(§2) Basic reaction buffer: 20 mM Hepes (pH 7.5), 10 mM MgCl2, 1 mM EGTA, 0.02% Brij35, 0.02 mg/ml BSA, 0.1 mM Na3VO4, 2 mM DTT and 1% DMSO. The required cofactor was added to each kinase reaction respectively.
(§3) • 1. Preparing the designated substrate in the newly prepared basic reaction buffer; • 2. Transferring the required cofactor to the above matrix solution; • 3. Transferring the designated kinase to the substrate solution and mixing well slightly; • 4. Transferring a compound of formulae I-III in DMSO to the kinase reaction mixture with Acoustic technique (Echo550; nanoliter range), culturing for 20 minutes at room temperature; • 5. Introducing ^33P-ATP (specific activity: 10 μCi/μl) to the reaction mixture to trigger a reaction; • 6. Culturing at room temperature and conducting a kinase reaction for 2 hours; • 7. Plotting the reaction on P81 ion exchange paper; • 8. Testing the kinase activity with a filter binding assay.

The target of series [1] is T1, JAK1 (Homo sapiens, UniProt P23458). In words: JAK1 biochemical test (33P-ATP filter binding kinase assay). The settings on record: room temperature, 2 hours. Here is the method:
as §1, §2, §3

In another series the target is TYK2 (Homo sapiens, UniProt P29597). The series is described as follows: TYK2 biochemical test (33P-ATP filter binding kinase assay). The following applies: room temperature, 2 hours. Here is the method: as §1, §2, §3
Chain of TYK2 (P29597 whole entry): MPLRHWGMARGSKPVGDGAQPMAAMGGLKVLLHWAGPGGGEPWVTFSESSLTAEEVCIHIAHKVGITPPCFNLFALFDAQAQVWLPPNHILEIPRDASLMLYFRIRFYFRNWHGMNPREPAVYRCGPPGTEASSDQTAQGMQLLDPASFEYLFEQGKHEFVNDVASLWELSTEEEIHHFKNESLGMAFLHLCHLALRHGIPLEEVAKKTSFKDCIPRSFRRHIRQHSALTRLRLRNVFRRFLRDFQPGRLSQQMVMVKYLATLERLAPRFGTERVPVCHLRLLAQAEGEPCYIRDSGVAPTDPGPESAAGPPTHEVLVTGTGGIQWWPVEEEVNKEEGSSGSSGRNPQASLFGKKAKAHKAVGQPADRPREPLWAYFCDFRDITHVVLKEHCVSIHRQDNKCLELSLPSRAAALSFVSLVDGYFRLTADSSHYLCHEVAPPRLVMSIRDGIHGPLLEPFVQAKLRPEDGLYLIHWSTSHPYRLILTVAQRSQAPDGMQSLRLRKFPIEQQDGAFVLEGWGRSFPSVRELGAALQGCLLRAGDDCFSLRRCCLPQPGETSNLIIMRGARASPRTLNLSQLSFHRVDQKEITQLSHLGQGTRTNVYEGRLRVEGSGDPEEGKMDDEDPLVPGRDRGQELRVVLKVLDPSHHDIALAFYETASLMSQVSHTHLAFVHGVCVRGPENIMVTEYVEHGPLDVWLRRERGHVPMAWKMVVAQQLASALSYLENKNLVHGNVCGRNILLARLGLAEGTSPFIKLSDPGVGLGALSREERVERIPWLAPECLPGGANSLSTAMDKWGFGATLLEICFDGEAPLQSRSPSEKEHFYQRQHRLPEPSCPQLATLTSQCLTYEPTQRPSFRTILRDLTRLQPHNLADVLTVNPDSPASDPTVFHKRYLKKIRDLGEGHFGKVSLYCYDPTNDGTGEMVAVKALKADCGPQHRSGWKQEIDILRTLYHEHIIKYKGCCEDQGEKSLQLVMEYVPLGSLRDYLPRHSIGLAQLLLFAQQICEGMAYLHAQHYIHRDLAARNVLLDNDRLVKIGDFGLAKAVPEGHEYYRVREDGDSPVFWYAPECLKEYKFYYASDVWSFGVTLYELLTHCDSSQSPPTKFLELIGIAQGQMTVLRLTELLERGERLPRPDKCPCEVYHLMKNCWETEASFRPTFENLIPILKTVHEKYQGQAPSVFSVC
The target of another series is JAK2 (Homo sapiens, UniProt O60674). In words: JAK2 biochemical test (33P-ATP filter binding kinase assay). The following applies: room temperature, 2 hours. Here is the method: as §1, §2, §3
Chain of JAK2 (O60674 whole entry): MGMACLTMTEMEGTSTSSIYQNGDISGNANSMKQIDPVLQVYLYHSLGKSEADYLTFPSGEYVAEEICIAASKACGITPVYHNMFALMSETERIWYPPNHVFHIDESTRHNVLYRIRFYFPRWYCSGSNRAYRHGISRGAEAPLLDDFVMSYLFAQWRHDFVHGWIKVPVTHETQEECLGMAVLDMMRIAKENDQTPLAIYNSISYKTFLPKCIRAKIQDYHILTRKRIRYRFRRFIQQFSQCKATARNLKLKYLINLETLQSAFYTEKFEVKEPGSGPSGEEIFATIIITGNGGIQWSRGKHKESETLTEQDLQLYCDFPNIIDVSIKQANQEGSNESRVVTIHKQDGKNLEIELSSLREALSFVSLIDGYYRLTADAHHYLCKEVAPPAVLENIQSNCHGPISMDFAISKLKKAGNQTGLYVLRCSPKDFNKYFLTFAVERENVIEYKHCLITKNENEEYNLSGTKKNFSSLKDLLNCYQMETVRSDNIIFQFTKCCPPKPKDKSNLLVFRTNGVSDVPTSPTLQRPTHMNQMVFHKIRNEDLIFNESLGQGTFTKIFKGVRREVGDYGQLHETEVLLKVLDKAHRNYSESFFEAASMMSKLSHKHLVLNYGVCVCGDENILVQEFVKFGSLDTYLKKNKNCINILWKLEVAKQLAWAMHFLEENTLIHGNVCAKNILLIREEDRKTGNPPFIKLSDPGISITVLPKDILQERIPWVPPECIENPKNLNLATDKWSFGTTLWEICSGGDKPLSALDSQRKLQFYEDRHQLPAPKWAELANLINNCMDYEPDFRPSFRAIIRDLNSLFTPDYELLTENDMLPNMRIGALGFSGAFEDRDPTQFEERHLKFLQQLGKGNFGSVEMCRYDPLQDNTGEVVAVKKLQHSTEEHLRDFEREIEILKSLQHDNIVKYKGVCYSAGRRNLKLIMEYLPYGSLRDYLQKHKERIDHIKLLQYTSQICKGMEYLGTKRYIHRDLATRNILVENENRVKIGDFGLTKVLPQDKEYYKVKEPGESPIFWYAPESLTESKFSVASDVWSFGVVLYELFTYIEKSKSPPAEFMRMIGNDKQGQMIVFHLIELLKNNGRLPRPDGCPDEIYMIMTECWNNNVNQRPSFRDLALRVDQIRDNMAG
Series [2] deals with T1, JAK1. The series is described as follows: JAK1 cellular ELISA assay using PBMC cells (IL-6 stimulated STAT3 phosphorylation). Type of series: cell-based. The settings on record: IL-6 100 ng/ml, 25 min. As for the experimental part: Purpose: test cellular JAK1 activity using the IL-6 stimulated STAT3 phosphorylation assay in PBMC cells.
• 1. Plate PBMC cells to 96-well plate at density of ~300,000 cell/well; • 2. Add different concentrations of test article to wells, maintain in incubator at 37° C. and 5% CO2 for 1 hour; • 3. Add IL-6 (final concentration: 100 ng/ml) to stimulate for 25 min in the above incubator; • 4. After stimulation, transfer the suspension to 1.5 mL tube, centrifuge at 200 g for 5 min, collect cells, add 100 μL 1× lysate, lyse on ice for 1 hour; • 5. Centrifuge at 4° C. and 12000 rpm for 10 min, take the supernatant and analyze according to instructions of the ELISA kit.
Background: An ELISA detects its analyte on a solid surface through an enzyme-linked reagent.

The conditions of series [3]: approved oral agents; topical formulation of ruxolitinib; cited from earlier work.

A word on the IC50: it is the concentration that gives 50% inhibition. A low value points to higher potency.

A value given as a limit tells only on which side of the number the result lay.

T1 sequence (P23458 whole entry): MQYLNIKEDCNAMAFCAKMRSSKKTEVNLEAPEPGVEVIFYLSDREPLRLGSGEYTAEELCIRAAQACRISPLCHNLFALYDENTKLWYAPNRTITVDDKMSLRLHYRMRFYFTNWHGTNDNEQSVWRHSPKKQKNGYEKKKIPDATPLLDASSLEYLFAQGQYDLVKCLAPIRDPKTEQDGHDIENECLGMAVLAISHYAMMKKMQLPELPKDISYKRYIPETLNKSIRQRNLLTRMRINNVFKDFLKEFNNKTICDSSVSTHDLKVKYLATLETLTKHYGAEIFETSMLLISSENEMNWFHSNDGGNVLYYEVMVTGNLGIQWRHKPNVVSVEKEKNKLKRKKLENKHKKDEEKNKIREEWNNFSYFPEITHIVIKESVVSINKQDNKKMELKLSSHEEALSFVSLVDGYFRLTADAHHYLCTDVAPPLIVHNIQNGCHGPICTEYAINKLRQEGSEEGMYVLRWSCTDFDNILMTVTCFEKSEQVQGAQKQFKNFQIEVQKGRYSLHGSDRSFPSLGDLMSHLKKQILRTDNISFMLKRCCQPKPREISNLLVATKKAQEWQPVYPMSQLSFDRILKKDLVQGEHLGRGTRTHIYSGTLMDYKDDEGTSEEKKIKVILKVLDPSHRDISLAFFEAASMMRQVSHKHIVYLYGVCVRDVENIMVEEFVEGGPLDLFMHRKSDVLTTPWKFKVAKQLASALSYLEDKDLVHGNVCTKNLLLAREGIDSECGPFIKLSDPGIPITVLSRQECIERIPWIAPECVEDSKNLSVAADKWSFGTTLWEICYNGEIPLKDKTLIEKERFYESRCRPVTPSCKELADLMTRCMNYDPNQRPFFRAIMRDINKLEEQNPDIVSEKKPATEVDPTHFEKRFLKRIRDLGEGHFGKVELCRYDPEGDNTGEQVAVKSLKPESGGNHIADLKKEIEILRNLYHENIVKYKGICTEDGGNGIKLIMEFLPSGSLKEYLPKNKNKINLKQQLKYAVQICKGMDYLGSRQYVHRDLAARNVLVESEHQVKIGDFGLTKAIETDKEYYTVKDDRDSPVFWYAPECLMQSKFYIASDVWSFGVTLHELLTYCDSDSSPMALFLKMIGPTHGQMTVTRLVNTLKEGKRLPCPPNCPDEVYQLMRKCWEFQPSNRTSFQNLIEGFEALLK

Consider `Cc1cnc(Nc2cnn(C)c2)nc1N(C)[C@H]1CN(C(=O)CC#N)CC[C@H]1C` [Compound 22, 3-((3R,4R)-4-methyl-3-(methyl(5-methyl-2-((1-methyl-1H-pyrazol-4-yl)amino)pyrimidin-4-yl)amino)piperidin-1-yl)-3-oxopropanenitrile, reference compound], for which the “fold less potent TYK2/JAK1/JAK2 inhibitor compared to analogs of Formula II (example 4) and Formula III (example 18)” value with TYK2/JAK1/JAK2 is over 100 ×. The IC50 on JAK1 [1] and on TYK2 was over 100 nM each time.

`Cc1cnc(Nc2ccc3ncn(C)c3c2)nc1-c1cnn([C@H](CC#N)C2CCCC2)c1` [Compound 23, (R)-3-cyclopentyl-3-(4-(5-methyl-2-((1-methyl-1H-benzo[d]imidazol-6-yl)amino)pyrimidin-4-yl)-1H-pyrazol-1-yl)propanenitrile]: the IC50 at JAK2 is under 1 nM; at JAK1 [1], under 1 nM; against JAK1 [2] it was under 500 nM; at TYK2, under 1 nM. Further, the “TYK2/JAK1/JAK2 inhibition (in words)” value in the series on TYK2/JAK1/JAK2 is on record as “potent TYK2/JAK1/JAK2 inhibitors”.

As for `CNS(=O)(=O)C[C@H]1CC[C@H](N(C)c2nc(Nc3cnn(C)c3)ncc2C)CC1` [Compound 21, N-methyl-1-((1r,4r)-4-(methyl(5-methyl-2-((1-methyl-1H-pyrazol-4-yl)amino)pyrimidin-4-yl)amino)cyclohexyl)methanesulfonamide, reference compound], the IC50 on JAK2, on JAK1 [1] and at TYK2 was over 100 nM each time. The “fold less potent TYK2/JAK1/JAK2 inhibitor compared to analogs of Formula II (example 4) and Formula III (example 18)” value in the series with TYK2/JAK1/JAK2 is listed as over 100 ×.

Consider `CC[C@@H]1CN(C(=O)NCC(F)(F)F)C[C@@H]1c1cnc2cnc3[nH]ccc3n12` [upadacitinib], for which the “black box warnings / risks” value in series [3] was “black box warnings of risks such as serious infections, non-melanoma skin cancers, thrombosis, and thrombocytopenia”.

Turning to `CCS(=O)(=O)N1CC(CC#N)(n2cc(-c3nc(Nc4cnn(C)c4)ncc3C3CC3)cn2)C1` [Compound 2, 2-(3-(4-(5-cyclopropyl-2-((1-methyl-1H-pyrazol-4-yl)amino)pyrimidin-4-yl)-1H-pyrazol-1-yl)-1-(ethylsulfonyl)azetidin-3-yl) acetonitrile], the values for the IC50 at JAK2, at JAK1 [1] and on TYK2 were under 1 nM, under 10 nM and under 1 nM, respectively. Moreover, the “TYK2/JAK1/JAK2 inhibition (in words)” value with TYK2/JAK1/JAK2 is on record as “potent TYK2/JAK1/JAK2 inhibitors”.

`Cc1cnc(Nc2cnn(CC3COC3)c2)nc1-c1cnn([C@H](CC#N)C2CCCC2)c1` [Compound 9, (R)-3-cyclopentyl-3-(4-(5-methyl-2-((1-(oxetan-3-ylmethyl)-1H-pyrazol-4-yl)amino)pyrimidin-4-yl)-1H-pyrazol-1-yl) propanenitrile]: the IC50 at JAK2, at JAK1 [1] and at TYK2 was under 1 nM each time. For the same compound, the “TYK2/JAK1/JAK2 inhibition (in words)” value in the series on TYK2/JAK1/JAK2 is listed as “potent TYK2/JAK1/JAK2 inhibitors”.

Regarding `CCS(=O)(=O)N1CC(CC#N)(n2cc(-c3nc(Nc4ccn(C)n4)ncc3C)cn2)C1.Cl` [Compound 14, 2-(1-(ethylsulfonyl)-3-(4-(5-methyl-2-((1-methyl-1H-pyrazol-3-yl)amino)pyrimidin-4-yl)-1H-pyrazol-1-yl)azetidin-3-yl)acetonitrile hydrochloride, reference compound], the “fold less potent than its 2-((pyrazol-4-yl)amino) analog (example 18)” value in the series on TYK2/JAK1/JAK2 is listed as over 10 ×. The IC50 on JAK1 [1] and at TYK2 was over 10 nM each time.

With `CCS(=O)(=O)N1CC(CC#N)(n2cc(-c3nc(Nc4ccc5ncn(C)c5c4)ncc3C)cn2)C1` [Compound 26, 2-(1-(ethylsulfonyl)-3-(4-(5-methyl-2-((1-methyl-1H-benzo[d]imidazol-6-yl)amino)pyrimidin-4-yl)-1H-pyrazol-1-yl)azetidin-3-yl)acetonitrile], in the series with TYK2/JAK1/JAK2, the “TYK2/JAK1/JAK2 inhibition (in words)” value is given as “potent TYK2/JAK1/JAK2 inhibitors”. On JAK1 [1], this compound came in with an IC50 of under 1 nM.

For the compound `Cc1cnc(Nc2cnn(C3COC3)c2)nc1-c1cnn([C@H](CC#N)C2CCCC2)c1` [Compound 8, (R)-3-cyclopentyl-3-(4-(5-methyl-2-((1-(oxetan-3-yl)-1H-pyrazol-4-yl)amino)pyrimidin-4-yl)-1H-pyrazol-1-yl) propanenitrile], the IC50 at JAK2, on JAK1 [1] and at TYK2 was under 1 nM each time. Besides, the “TYK2/JAK1/JAK2 inhibition (in words)” value in the series on TYK2/JAK1/JAK2 is “potent TYK2/JAK1/JAK2 inhibitors”.

On to `Cc1cnc(Nc2cnoc2)nc1-c1cnn([C@H](CC#N)C2CCCC2)c1` [Compound 5, (R)-3-cyclopentyl-3-(4-(2-(isoxazol-4-ylamino)-5-methylpyrimidin-4-yl)-1H-pyrazol-1-yl) propanenitrile], for which the IC50 at JAK2, on JAK1 [1] and on TYK2 was under 1 nM throughout. In the series with TYK2/JAK1/JAK2, the “TYK2/JAK1/JAK2 inhibition (in words)” value was “potent TYK2/JAK1/JAK2 inhibitors”.

With `CCCS(=O)(=O)N[C@H]1C[C@@H](N(C)c2nc(Nc3cnn(C)c3)ncc2C)C1` [Compound 20, N-((1s,3s)-3-(methyl(5-methyl-2-((1-methyl-1H-pyrazol-4-yl)amino)pyrimidin-4-yl)amino)cyclobutyl)propane-1-sulfonamide, reference compound], the IC50 at JAK2, on JAK1 [1] and on TYK2 was over 10 nM in each case. Besides, the “fold less potent TYK2/JAK1/JAK2 inhibitor compared to analogs of Formula II (example 4) and Formula III (example 18)” value in the series with TYK2/JAK1/JAK2 was over 10 ×.

With `Cc1cnc(Nc2cnn(CC3CCOCC3)c2)nc1-c1cnn([C@H](CC#N)C2CCCC2)c1` [Compound 6, (R)-3-cyclopentyl-3-(4-(5-methyl-2-((1-((tetrahydro-2H-pyran-4-yl)methyl)-1H-pyrazol-4-yl)amino)pyrimidin-4-yl)-1H-pyrazol-1-yl)propanenitrile], the IC50 at JAK2, on JAK1 [1] and at TYK2 was under 1 nM each time. For the same compound, the “TYK2/JAK1/JAK2 inhibition (in words)” value in the series on TYK2/JAK1/JAK2 is reported as “potent TYK2/JAK1/JAK2 inhibitors”.

Consider `N#CC[C@H](C1CCCC1)n1cc(-c2nc(Nc3cnn(C4CCOCC4)c3)ncc2Cl)cn1` [Compound 11], for which the “TYK2/JAK1/JAK2 inhibition (in words)” value in the series with TYK2/JAK1/JAK2 is “potent TYK2/JAK1/JAK2 inhibitors”. Further, the IC50 on TYK2 was under 1 nM.

Regarding `CCS(=O)(=O)N1CC(CC#N)(n2cc(-c3nc(Nc4cn(C)nn4)ncc3C)cn2)C1` [Compound 19, 2-(1-(ethylsulfonyl)-3-(4-(5-methyl-2-((1-methyl-1H-1,2,3-triazol-4-yl)amino)pyrimidin-4-yl)-1H-pyrazol-1-yl)azetidin-3-yl)acetonitrile, reference compound], the IC50 on JAK2, at JAK1 [1] and at TYK2 was over 10 nM throughout. Further, the “fold less potent than its 2-((pyrazol-4-yl)amino) analog (example 18)” value in the series with TYK2/JAK1/JAK2 is given as over 10 ×.

`Cc1cnc(Nc2cnn(CCO)c2)nc1-c1cnn([C@H](CC#N)C2CCCC2)c1` [Compound 24, (R)-3-cyclopentyl-3-(4-(2-((1-(2-hydroxyethyl)-1H-pyrazol-4-yl)amino)-5-methylpyrimidin-4-yl)-1H-pyrazol-1-yl)propanenitrile]: the IC50 at JAK2 was under 1 nM; on JAK1 [1], under 1 nM; at JAK1 [2], under 500 nM; on TYK2, under 1 nM. Moreover, the “TYK2/JAK1/JAK2 inhibition (in words)” value with TYK2/JAK1/JAK2 is “potent TYK2/JAK1/JAK2 inhibitors”.

For the compound `CCCS(=O)(=O)N[C@H]1C[C@@H](N(C)c2ncnc3[nH]ccc23)C1` [abrocitinib], the “black box warnings / risks” value in series [3] was “black box warnings of risks such as serious infections, non-melanoma skin cancers, thrombosis, and thrombocytopenia”.

For `Cc1cnc(Nc2cnn(C3CCOCC3)c2)nc1-c1cnn([C@H](CC#N)C2CCCC2)c1` [Compound 7, (R)-3-cyclopentyl-3-(4-(5-methyl-2-((1-(tetrahydro-2H-pyran-4-yl)-1H-pyrazol-4-yl)amino)pyrimidin-4-yl)-1H-pyrazol-1-yl)propanenitrile], the IC50 on JAK2, on JAK1 [1] and at TYK2 was under 1 nM each time. Further, the “TYK2/JAK1/JAK2 inhibition (in words)” value in the series on TYK2/JAK1/JAK2 was “potent TYK2/JAK1/JAK2 inhibitors”.
